{
  "source": "patent US20130143942A1",
  "about": "“METHODS OF CONTROLLING NEONICOTINOID RESISTANT APHIDS” (SYNGENTA CROP PROTECTION LLC, priority 2010, published 2013)",
  "key": {"[1]": {"tested_on": "neonicotinoid insecticide resistant aphid strain", "test": "leaf disc spray bioassay, aphid mortality 72 hours after treatment, resistant strain", "assay_type": "in vivo", "settings": "mixed age aphids on chinese cabbage leaf discs, sprayed in Potter Tower, resistant strain collected from peach orchard, Avignon region, 2009", "method": "(§1) The following bioassay methodology was utilized to generate the data included in the table:\n(§2) 5 cm leaf discs were taken from fully expanded chinese cabbage leaves and placed with the underside facing upwards onto water agar in 5 cm Petri dishes. The leaf discs are infested with between 30 and 40 mixed age aphids 24 hours prior to insecticide treatment. The leaf surface is sprayed with the appropriate test solutions in a Burkhard Potter Tower at an approximate water volume of 450 l/ha. Test containers are stored at 21° C., 60% RH and 16:8 light/dark. Aphids were assessed for mortality 72 hours after treatment."}, "[2]": {"tested_on": "neonicotinoid insecticide susceptible strain 4106A", "test": "leaf disc spray bioassay, aphid mortality 72 hours after treatment, susceptible strain", "assay_type": "in vivo", "settings": "mixed age aphids on chinese cabbage leaf discs, sprayed in Potter Tower, susceptible strain 4106A (Rothamsted Research)", "method": "as §1, §2"}},
  "data": [
    {"smiles": "CCOC(=O)OC1=C(c2cc(C)ccc2C)C(=O)N[C@]12CC[C@@H](OC)CC2", "note": "[sprirotetramat, cis-3-(2,5-dimethylphenyl)-8-methoxy-2-oxo-1-azaspiro[4.5]dec-3-en-4-yl ethyl carbonate]", "values": [
      {"measurement": "LC50 with 95% confidence limit, resistant strain", "setting": "[1]", "value": "1.58 (1.14-2.23) ppm"},
      {"measurement": "LC50 with 95% confidence limit, susceptible strain", "setting": "[2]", "value": "0.88 (0.60-1.22) ppm"}
    ]}
  ]
}
